From ChEMBL document CHEMBL5356986, “Research status of indole-modified natural products” (RSC Med Chem, 2023)
Blank lines part the entries; values can stand above or below the molecule they belong to.

Key:
RPMI-8226 = assay: Growth inhibition of human RPMI-8226 cells; format: functional
CCRF-CEM = assay: Growth inhibition of human CCRF-CEM cells; format: functional
MCF7 [1] = assay: Cytotoxicity against human MCF7 cells assessed as reduction in cell viability after 48 hrs by SRB assay; format: functional, cell-based; conditions: MCF7, 48 h
A549 = assay: Antiproliferative activity against human A549 cells assessed as reduction in cell viability by MTT assay; format: functional, cell-based
Alpha glucosidase = Alpha glucosidase (Homo sapiens, UniProt O43451+P10253+P14410+Q2M2H8); assay: Inhibition of alpha glucosidase (unknown origin) measured after 60 mins; format: protein assay
HeLa [2] = assay: Cytotoxicity against human HeLa cells assessed as reduction in cell viability; format: functional, cell-based
Bel-7402 = assay: Cytotoxicity against human Bel-7402 cells assessed as reduction in cell viability measured after 72 hrs by MTT assay; format: functional, cell-based; conditions: Bel-7402, 72 h
CAMA-1 = assay: Antiproliferative activity against human CAMA-1 cells assessed as cell growth inhibition; format: functional, cell-based
MDA-MB-453 = assay: Antiproliferative activity against human MDA-MB-453 cells assessed as reduction in cell growth after 72 hrs by MTT assay; format: functional, cell-based; conditions: MDA-MB-453, 72 h
HT-29 = assay: Antiproliferative activity against human HT-29 cells assessed as inhibition of cell proliferation by MTT assay; format: functional, cell-based
MCF7 [3] = assay: Antiproliferative activity against human MCF7 cells assessed as inhibition of cell growth after overnight incubation by MTT assay; format: functional, cell-based
HeLa [4] = assay: Antiproliferative activity against human HeLa cells assessed as inhibition of cell growth incubated for 72 hrs by MTT assay; format: functional, cell-based
SMMC-7721 = assay: Cytotoxicity against human SMMC-7721 cells assessed as reduction in cell viability incubated for 48 hrs by MTT assay; format: functional, cell-based; conditions: SMMC-7721, 48 h
MCF7 [5] = assay: Cytotoxicity against human MCF7 cells assessed as reduction in cell growth; format: functional, cell-based
[6] = Cytotoxicity against human A549 cells assessed as cell growth inhibition measured after 24 hrs by MTT assay; format: functional, cell-based
HL-60 = assay: Cytotoxicity against human HL-60 cells assessed as reduction in cell viability incubated for 48 hrs by MTT assay; format: functional, cell-based; conditions: HL-60, 48 h
SW480 = assay: Cytotoxicity against human SW480 cells assessed as cell growth inhibition; format: functional, cell-based
H4 = assay: Antiproliferative activity against human H4 cells assessed as cell growth inhibition; format: functional, cell-based
K562 = assay: Antiproliferative activity against human K562 cells assessed as cell growth inhibition by MTT assay; format: functional, cell-based
HeLa [7] = assay: Antiproliferative activity against human HeLa cells assessed as reduction in cell growth; format: functional, cell-based
[8] = Antioxidant activity assessed as DPPH radical scavenging activity; format: functional
[9] = Antioxidant activity assessed as DPPH radical scavenging activity measured after 30 mins; format: functional
[10] = test system: Human immunodeficiency virus 1; assay: Antiviral activity against HIV-1 harboring integrase L74M mutant; format: functional, organism-based
HepG2 = assay: Cytotoxicity against human HepG2 cells assessed as reduction in cell viability measured after 48 hrs by MTT colorimetric based assay; format: functional; conditions: HepG2, 48 h
SGC-7901 = assay: Cytotoxicity against human SGC-7901 cells assessed as reduction in cell viability measured after 48 hrs by MTT colorimetric assay; format: functional, cell-based; conditions: SGC-7901, 48 h

SMILES: C=C1C(=O)O[C@@H]2C3O[C@]3(C)CC/C=C(\C)CC[C@@H]12 (stereo partly specified)
GI50 (RPMI-8226): 8200 nM
GI50 (CCRF-CEM): 9160 nM

SMILES: C[C@@H]1CC[C@H]2[C@@H](C)C(OC(=O)c3cc4ccccc4[nH]3)O[C@@H]3O[C@@]4(C)CC[C@@H]1[C@]32OO4 (stereo partly specified)
IC50 (MCF7 [1]): 6780 nM
IC50 (A549): 12900 nM

SMILES: C=C(C)[C@@H]1CC[C@]2(C(=O)NCC(=O)O)CC[C@]3(C)[C@H](CC[C@@H]4[C@@]5(C)Cc6c([nH]c7ccccc67)C(C)(C)[C@@H]5CC[C@]43C)[C@@H]12
IC50 (Alpha glucosidase): 1800 nM

SMILES: COc1ccc(/C=C\c2cc(OC)c(OC)c(OC)c2)cc1O [COMBRETASTATIN A4]
IC50 (HeLa [2]): 210 nM

SMILES: C=C(C)[C@@H]1CC[C@]2(C(=O)O)CC[C@]3(C)[C@H](CC[C@@H]4[C@@]5(C)Cc6c([nH]c7ccccc67)C(C)(C)[C@@H]5CC[C@]43C)[C@@H]12
IC50 (Alpha glucosidase): 40 nM

SMILES: COC(=O)[C@]1(C)CC[C@]2(C)CC[C@]3(C)C4=CC(c5c[nH]c6cc(C)ccc56)=C5C(=CC(OC)C(OC)=C5C)[C@]4(C)CC[C@@]3(C)[C@@H]2C1 (stereo partly specified)
IC50 (Bel-7402): 20 nM

SMILES: COC(=O)C1=CO[C@@H](OC)[C@@H]2C(C(NCCc3c[nH]c4ccccc34)NCCc3c[nH]c4ccccc34)=CC[C@H]12
IC50 (SMMC-7721): 3520 nM
IC50 (MCF7 [5]): 3100 nM
IC50 [6]: 3640 nM
IC50 (HL-60): 900 nM
IC50 (SW480): 2530 nM

SMILES: COC(=O)[C@]1(C)CC[C@]2(C)CC[C@]3(C)C4=CC(c5cn(C)c6cc(Cl)ccc56)=C5C(=CC(OC)C(OC)=C5C)[C@]4(C)CC[C@@]3(C)[C@@H]2C1 (stereo partly specified)
IC50 (Bel-7402): 10 nM
IC50 (H4): 2030 nM

SMILES: COc1cc([C@@H]2c3cc4c(cc3[C@H](NC(=O)C(=O)c3cn(Cc5ccccc5Cl)c5ccc(F)cc35)[C@H]3COC(=O)[C@H]23)OCO4)cc(OC)c1OC
IC50 (K562): 400 nM
IC50 (HeLa [7]): 150 nM

SMILES: O=C1O[C@H]([C@@H](O)CO)C([O-])=C1O.[Na+] [SODIUM ASCORBATE]
IC50 [8]: 12800 nM

SMILES: C=C(C)[C@@H]1CC[C@]2(C(=O)N3CCN(C(=O)/C=C/c4ccc5[nH]ccc5c4)CC3)CC[C@]3(C)[C@H](CC[C@@H]4[C@@]5(C)CC[C@H](OC(=O)CC(C)(C)C(=O)O)C(C)(C)[C@@H]5CC[C@]43C)[C@@H]12
IC50 [10]: 50 nM

SMILES: C[C@H]1[C@H](C)CC[C@]2(C(=O)O)CC[C@]3(C)C(=CC[C@@H]4[C@@]5(C)CC[C@H](O)C(C)(C)[C@@H]5CC[C@]43C)[C@H]12 [URSOLIC ACID]
IC50 (HepG2): > 20000 nM
IC50 (SGC-7901): > 20000 nM

Second part, led by results:

GI50 (RPMI-8226): 260 nM
GI50 (CCRF-CEM): 280 nM
SMILES: C=C1C(=O)O[C@H]2[C@H]1CC1C(COC(=O)c3cc4ccccc4[nH]3)=CCC[C@@]3(C)O[C@@]123 (stereo partly specified)

IC50 (MDA-MB-453): < 10 nM
SMILES: CC1(C)CCC(C)(C)c2cc(C(=O)/C=C/c3c[nH]c4ccccc34)ccc21
IC50 (CAMA-1): < 10 nM

IC50 (HT-29): 7300 nM
IC50 (MCF7 [3]): 1100 nM
IC50 (HeLa [4]): 2000 nM
SMILES: COC(=O)c1[nH]c2ccccc2c1/C=C/C(=O)c1cc(OC)c(OC)c(OC)c1

IC50 (HT-29): 440 nM
IC50 (MCF7 [3]): 1800 nM
IC50 (HeLa [4]): 2100 nM
SMILES: CCOC(=O)c1[nH]c2ccccc2c1/C=C/C(=O)c1cc(OC)c(OC)c(OC)c1

EC50 [9]: 51000 nM
SMILES: O=C(/C=C/c1ccc(O)c(O)c1)Nc1ccc2[nH]ccc2c1

GI50 (RPMI-8226): 40 nM
GI50 (CCRF-CEM): 50 nM
SMILES: C=C1C(=O)O[C@H]2[C@H]1CC1C(COC(=O)c3c[nH]c4ccccc34)=CCC[C@@]3(C)O[C@@]123 (stereo partly specified)

GI50 (RPMI-8226): 30 nM
GI50 (CCRF-CEM): 70 nM
SMILES: C=C1C(=O)O[C@H]2[C@H]1CC1C(COC(=O)/C=C/c3c[nH]c4ccccc34)=CCC[C@@]3(C)O[C@@]123 (stereo partly specified)
